Laboratory results reported in article PMC6199744, “Development of Chemical Proteomics for the Folateome and Analysis of the Kinetoplastid Folateome” (ACS Infectious Diseases, 2018).
Like-named read-outs stand apart in the source and are kept apart here.

How the values were obtained:
Assay type in all cases: binding
[1] = biological target: T1, HeLa cell extract proteins (Homo sapiens, UniProt P05109)
T1 construct: endogenous in cells; host or cells: HeLa cell extract
T1 sequence (P05109 1-93): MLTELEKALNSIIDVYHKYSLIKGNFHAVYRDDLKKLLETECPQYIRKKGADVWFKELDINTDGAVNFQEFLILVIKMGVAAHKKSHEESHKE

[2] = biological target: T2, HeLa cell extract proteins (Homo sapiens, UniProt P30049)
T2 construct: endogenous in cells; host or cells: HeLa cell extract
T2 sequence (P30049 23-168): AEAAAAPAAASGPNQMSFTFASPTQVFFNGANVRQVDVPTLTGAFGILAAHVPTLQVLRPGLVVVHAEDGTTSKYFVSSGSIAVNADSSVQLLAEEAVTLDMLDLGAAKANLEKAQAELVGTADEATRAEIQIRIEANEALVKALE

[3] = biological target: T3, HeLa cell extract proteins (Homo sapiens, UniProt P31939)
T3 construct: endogenous in cells; host or cells: HeLa cell extract

[4] = biological target: T4, HeLa cell extract proteins (Homo sapiens, UniProt Q92499)
T4 construct: endogenous in cells; host or cells: HeLa cell extract
T4 sequence (Q92499 1-740): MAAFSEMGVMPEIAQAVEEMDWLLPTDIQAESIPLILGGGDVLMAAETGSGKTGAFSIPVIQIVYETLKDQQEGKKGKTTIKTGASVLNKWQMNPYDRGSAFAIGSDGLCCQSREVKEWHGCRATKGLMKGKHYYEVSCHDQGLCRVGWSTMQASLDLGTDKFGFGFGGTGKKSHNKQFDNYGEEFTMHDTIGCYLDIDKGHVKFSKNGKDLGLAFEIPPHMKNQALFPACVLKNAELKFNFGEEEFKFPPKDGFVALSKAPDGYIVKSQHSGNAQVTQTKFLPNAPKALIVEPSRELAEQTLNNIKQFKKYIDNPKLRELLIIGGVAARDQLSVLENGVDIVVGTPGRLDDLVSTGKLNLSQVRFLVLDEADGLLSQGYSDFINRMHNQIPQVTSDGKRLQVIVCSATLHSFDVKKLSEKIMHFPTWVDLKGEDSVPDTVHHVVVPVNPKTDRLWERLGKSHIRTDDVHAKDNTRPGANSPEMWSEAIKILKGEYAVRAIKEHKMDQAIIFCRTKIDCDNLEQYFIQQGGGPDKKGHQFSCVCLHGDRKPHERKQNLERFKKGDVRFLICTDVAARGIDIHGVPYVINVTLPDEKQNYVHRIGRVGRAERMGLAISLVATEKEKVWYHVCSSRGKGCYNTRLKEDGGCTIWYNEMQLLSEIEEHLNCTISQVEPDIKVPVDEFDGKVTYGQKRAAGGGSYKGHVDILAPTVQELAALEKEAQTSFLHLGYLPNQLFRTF

[5] = biological target: T5, HeLa cell extract proteins (Homo sapiens, UniProt P09429); settings: HeLa; protein HMGB1 (HIGH MOBILITY GROUP PROTEIN B1.)
T5 construct: endogenous in cells; host or cells: HeLa cell extract
T5 sequence (P09429 1-215): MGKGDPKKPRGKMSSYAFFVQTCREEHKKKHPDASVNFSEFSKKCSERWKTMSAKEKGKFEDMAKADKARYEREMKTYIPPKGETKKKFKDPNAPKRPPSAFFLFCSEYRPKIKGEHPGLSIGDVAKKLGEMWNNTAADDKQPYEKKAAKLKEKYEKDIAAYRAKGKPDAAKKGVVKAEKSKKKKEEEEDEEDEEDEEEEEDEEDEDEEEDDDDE

[6] = biological target: T6, HeLa cell extract proteins (Homo sapiens, UniProt Q9Y266); settings: protein NUDC; HeLa
T6 construct: endogenous in cells; host or cells: HeLa cell extract

[7] = biological target: T7, HeLa cell extract proteins (Homo sapiens, UniProt Q9BUF5); settings: HeLa; protein TUBB6
T7 construct: endogenous in cells; host or cells: HeLa cell extract

[8] = biological target: T8, HeLa cell extract proteins (Homo sapiens, UniProt Q13510); settings: HeLa; protein ASAH1
T8 construct: endogenous in cells; host or cells: HeLa cell extract
T8 sequence (Q13510 22-395): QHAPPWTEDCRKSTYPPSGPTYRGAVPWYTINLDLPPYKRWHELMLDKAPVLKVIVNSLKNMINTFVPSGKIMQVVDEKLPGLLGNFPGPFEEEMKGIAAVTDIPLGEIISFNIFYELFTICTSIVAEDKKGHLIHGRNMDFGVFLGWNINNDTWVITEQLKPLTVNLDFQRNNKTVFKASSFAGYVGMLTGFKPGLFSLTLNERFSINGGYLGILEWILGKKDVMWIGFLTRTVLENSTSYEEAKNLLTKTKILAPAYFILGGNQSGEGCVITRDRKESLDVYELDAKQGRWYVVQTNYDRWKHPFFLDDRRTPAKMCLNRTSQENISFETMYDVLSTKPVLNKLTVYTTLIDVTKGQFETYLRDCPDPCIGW

[9] = biological target: T9, HeLa cell extract proteins (Homo sapiens, UniProt Q15233); settings: protein NONO; HeLa
T9 construct: endogenous in cells; host or cells: HeLa cell extract
T9 sequence (Q15233 1-471): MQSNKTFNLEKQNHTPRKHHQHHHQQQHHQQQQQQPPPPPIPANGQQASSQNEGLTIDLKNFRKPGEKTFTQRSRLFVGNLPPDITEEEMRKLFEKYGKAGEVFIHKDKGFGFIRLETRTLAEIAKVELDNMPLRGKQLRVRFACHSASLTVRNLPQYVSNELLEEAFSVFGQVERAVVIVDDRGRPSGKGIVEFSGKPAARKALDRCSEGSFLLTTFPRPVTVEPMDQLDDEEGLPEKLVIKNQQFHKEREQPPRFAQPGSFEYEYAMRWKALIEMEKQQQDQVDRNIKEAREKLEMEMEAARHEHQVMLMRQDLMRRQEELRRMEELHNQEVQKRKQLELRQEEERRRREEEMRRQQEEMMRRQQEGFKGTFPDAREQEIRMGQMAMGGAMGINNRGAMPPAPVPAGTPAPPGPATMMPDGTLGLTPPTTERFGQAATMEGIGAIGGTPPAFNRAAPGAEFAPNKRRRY

T6 sequence (Q9Y266 whole entry): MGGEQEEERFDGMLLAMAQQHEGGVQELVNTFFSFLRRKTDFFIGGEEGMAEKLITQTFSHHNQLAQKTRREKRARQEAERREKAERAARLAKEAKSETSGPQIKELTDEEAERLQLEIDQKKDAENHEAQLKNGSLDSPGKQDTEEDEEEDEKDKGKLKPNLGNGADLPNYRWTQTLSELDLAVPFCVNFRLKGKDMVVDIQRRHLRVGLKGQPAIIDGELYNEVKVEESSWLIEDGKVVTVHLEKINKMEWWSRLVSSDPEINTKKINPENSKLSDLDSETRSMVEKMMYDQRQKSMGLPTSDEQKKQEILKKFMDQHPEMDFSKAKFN
T7 sequence (Q9BUF5 whole entry): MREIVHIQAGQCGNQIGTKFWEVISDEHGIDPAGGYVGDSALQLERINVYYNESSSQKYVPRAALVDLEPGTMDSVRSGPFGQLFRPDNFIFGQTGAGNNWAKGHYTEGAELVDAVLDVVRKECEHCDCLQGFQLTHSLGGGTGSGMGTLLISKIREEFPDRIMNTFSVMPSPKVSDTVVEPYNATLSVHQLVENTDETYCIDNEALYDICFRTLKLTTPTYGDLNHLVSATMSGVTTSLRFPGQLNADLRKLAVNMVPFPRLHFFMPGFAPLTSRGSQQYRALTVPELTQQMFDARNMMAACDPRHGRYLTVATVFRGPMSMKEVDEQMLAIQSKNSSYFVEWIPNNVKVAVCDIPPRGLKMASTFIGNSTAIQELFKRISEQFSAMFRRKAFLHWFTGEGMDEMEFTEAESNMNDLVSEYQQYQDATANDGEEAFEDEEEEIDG
T3 sequence (P31939 whole entry): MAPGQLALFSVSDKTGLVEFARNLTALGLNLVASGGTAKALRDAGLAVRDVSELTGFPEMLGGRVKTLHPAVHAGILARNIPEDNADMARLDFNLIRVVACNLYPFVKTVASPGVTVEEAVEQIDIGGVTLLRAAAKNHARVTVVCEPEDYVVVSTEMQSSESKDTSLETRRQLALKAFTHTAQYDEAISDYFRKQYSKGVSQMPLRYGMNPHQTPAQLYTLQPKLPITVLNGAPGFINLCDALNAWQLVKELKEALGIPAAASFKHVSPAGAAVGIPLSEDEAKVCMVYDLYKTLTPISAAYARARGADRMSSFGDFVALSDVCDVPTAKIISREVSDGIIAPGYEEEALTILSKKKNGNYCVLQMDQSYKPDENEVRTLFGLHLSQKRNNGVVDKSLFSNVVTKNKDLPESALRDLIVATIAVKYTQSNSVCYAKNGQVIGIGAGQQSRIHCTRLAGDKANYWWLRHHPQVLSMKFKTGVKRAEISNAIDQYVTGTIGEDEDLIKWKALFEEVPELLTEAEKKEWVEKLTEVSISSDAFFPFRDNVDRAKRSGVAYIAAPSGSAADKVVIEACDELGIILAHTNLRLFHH

Row | SMILES | fold changes relative to vehicle control ([1]; protein S100A8, HeLa) | fold changes relative to vehicle control ([2]; protein ATP5D, HeLa) | fold changes relative to vehicle control ([3]; HeLa, protein ATIC) | fold changes relative to vehicle control ([4]; HeLa, captured protein DDX1) | fold changes relative to vehicle control [5] | fold changes relative to vehicle control [6] | fold changes relative to vehicle control [7] | fold changes relative to vehicle control [8] | fold changes relative to vehicle control [9] | also measured
1 | Nc1nc2c(c(=O)[nH]1)N(C=O)C(CNc1ccc(C(=O)N[C@@H](CCC(=O)O)C(=O)O)cc1)CN2 (stereo partly shown) [LEU, leucovorin] | 0.28 | 0.85 | 1.06 | 1.15 | – | – | – | – | – | –
2 | Nc1nc2[nH]cc(CCc3ccc(C(=O)N[C@@H](CCC(=O)O)C(=O)O)cc3)c2c(=O)[nH]1 [PTX, pemetrexed] | – | – | – | – | – | – | – | – | – | fold changes relative to vehicle control [1]: 0.34; fold changes relative to vehicle control [2]: 1.14; fold changes relative to vehicle control [3]: 0.91; fold changes relative to vehicle control [4]: 1.14
3 | CCCCCCOc1ccc(Cc2cnc(N)nc2N)cc1 [compound 1] | – | – | – | – | 1.53 fold | 1.23 | 0.7 | 0.97 | 0.97 | –
4 | CCCCCCOc1cccc(Cc2cnc(N)nc2N)c1 [compound 2] | – | – | – | – | 3.16 fold | 1.92 | 0.91 | 0.71 | 1.67 | –
5 | Nc1nc2cccc(-c3ccccc3)c2n1Cc1ccc(Cl)c(Cl)c1 [compound 3] | – | – | – | – | 0.85 fold | 1.06 | 1.19 | 0.89 | 0.92 | –
6 | NCCOCCOCC(=O)Nc1nc2ncc(CNc3ccc(C(=O)NC(CCC(=O)O)C(=O)O)cc3)nc2c(=O)[nH]1 (stereo not shown) [compound 6] | 0.4 | 1.17 | 1.13 | 1.12 | – | – | – | – | – | –
7 | NCCCNc1ccc(C(=O)NC(CCC(=O)O)C(=O)O)cc1 (stereo not shown) [compound 7] | 0.26 | 1.2 | 0.99 | 1.11 | – | – | – | – | – | –
